{"source": "patent US7659252B2", "about": "“Transdermal delivery peptides and method of use thereof” (Novomed Technologies, Inc. (Shanghai), priority 2005, dated 2010)", "key": {"insulin": {"target": "T1, insulin (Sus scrofa, UniProt P01315)", "T1 construct": "pharmaceutical-grade (>98%, 30 IU/mg) porcine insulin; purchased Xuzhou Pharmaceuticals", "T1 sequence (P01315 25-54 limits assumed)": "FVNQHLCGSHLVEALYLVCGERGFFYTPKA", "T1 sequence (P01315 88-108 limits assumed)": "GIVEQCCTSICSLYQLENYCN", "assay": "ELISA direct interaction between TD-1 and insulin (incl. reverse scheme)", "format": "binding, porcine", "protocol": "Insulin (100 μg) and a guinea pig anti-porcine insulin antibody (Atom High-Tech, used at 1:1000 dilution), in 100 μl of PBS, was added to each well and incubated for 2 hrs. at 37° C. After washing 6× with PBST, the plate was incubated with 1:2000 dilution of anti-guinea pig IgG conjugated with HRP (Chang-Dao Biotechnology Co. Ltd., Shanghai, China) for 1 hr. at 37° C. The plate was washed 6× with PBST, followed by the addition of 100 μl/well of TMB substrate. After incubation at room temperature for 10 mins and additional of stop solution (1 M H2SO4), absorbance was read at 450/630 nm in an ELISA reader. As a positive control, 1 ng to 1 μg of insulin was coated directly on the plates and was detected by the same procedure as described above. In areverse interaction scheme, ELISA plate wells were coated with 1 μg to 1 mg of insulin, blocked with BSA, incubated with TD-1-AngII fusion peptide (100 μg per well), incubated with rabbit polyclonal antibody against human angiotensin II (Atom High-Tech, used at 1:1000) and 1:2000 of anti-rabbit IgG conjugated with HRP (Zhong Shan Golden Bridge Biotechnology, Beijing, China), and finally assayed by TMB color reactionm using the same protocol as described above. The control for this reverse scheme experiment used 1 μg of TD-1-AngII coated directly to the wells."}, "hair follicles": {"tested_on": "hair follicles", "assay": "Microscopy of skin sections: hair follicle penetration", "format": "in vivo, rat", "protocol": "In particular, Insulin-FITC (Xi-an Huacheng, Xi-an, China) was dissolved in a small amount of DMF and subsequently diluted in saline for topical administration (final DMF concentration was <0.2%). […] After 2 hours the skin was carefully cleaned by 70% isopropyl alcohol and harvested by dissecting. The isolated skin was fixed with ice-cold 4% paraformaldehyde in 0.1 M phosphate buffer (PH 7.4) overnight. Following several washes with 10 mM phosphate-buffered saline (PBS PH7.4), skin samples were immersed in PBS containing 4.5% sucrose for 24 hours and then dehydrated in 10 mM PBS containing 30% sucrose till deposition. Floating horizontal and vertical sections with a thickness of 20 μm were obtained on a freezing microtome (CM1900 LEICA, Heidelberger, Nussloch, Germany). Cryosections were mounted onto poly-L-lysine-coated glasses, dried at room temperature and enveloped with 10 μl […] Mounting Medium (Vector Laboratories, Burlingame, Calif.). Fluorescence photomicrographs of the sections were obtained with OLYMPUS IX-70 microscope (OLYMPUS, Tokyo, Japan) using a filter set having excitation and emission length at 490-495 nm and 520-530 nm, respectively."}, "Male Wistar rats": {"tested_on": "Male Wistar rats", "assay": "Phage delivery across trimmed abdominal skin, phage titre in tail-vein blood", "format": "in vivo, rat", "protocol": "Phage delivery: Male Wistar rats (180 g to 220 g) were housed at a constant temperature (22° C.) and relative humidity (60%) with a fixed 12 hr. light/dark cycle, and free access to food and water. While the animals were anesthetized with Vrethane (5 ml/kg of 20% solution), the hair in an area of approximately 3.0 cm×3.0 cm on the abdomen was carefully trimmed using scissors, with caution not to damage the skin (rats with any visible sign of skin damage were not used). […] One hour after the phage administration blood was withdrawn from the tail vein and immediately assayed for phage titre according to manufacturer's protocol."}, "male Sprague-Dawley rats [1]": {"tested_on": "male Sprague-Dawley rats", "assay": "Transdermal apomorphine delivery, APO-induced penile erections", "format": "in vivo, rat", "protocol": "All behavioral studies were performed from 9:00 am to 4:00 pm at 24±1° C. While the animals were anesthetized with Urethane, the hair in an area of approximately 3.0 cm×3.0 cm in the interscapular region was carefully trimmed using scissors, with caution not to damage the skin (rats with any visible sign of skin damage were not used). Rats were allowed to recover for at least 24 hours before the experiments. One hundred ul cream containing indicated amounts of apomorphine (APO) was placed on the exposed skin and spread evenly using the side of a pipet tip.\nImmediately after administration, rats were placed into individual polystyrene cages (32 cm long, 30 cm wide, 30 cm high) for behavioral observation. […] According to methods described by Berendsen and Broekkamp (1987, Eur. J. Pharmacol. 135(3):279-87), a penile erection was present when the following is observed: repeated pelvic thrust immediately followed by an upright position, an emerging engorged penis which the rat licks while eating the ejaculate."}, "[2]": {"tested_on": "streptozotocin-induced diabetic rats", "assay": "Transdermal insulin delivery: serum insulin and blood glucose", "format": "in vivo, rat", "protocol": "Insulin delivery: In particular, male Wistar rats were given intraperitoneal injection of straptozotocin (60 mg/kg; Sigma-Aldrich, St. Louis, […].) to make these rats in diabetic states. Seven to 10 days post injection blood glucose level was measured using One-Touch Ultra Glucometer (LifeScan, Milpitas, Calif.). The straptozocin-induced (SD-induced) diabetic rats with blood glucose level of over 20 mmol/l (normal rats are between 4 and 6 mmol/l) were selected and randomly assigned to different treatment groups, with 6 rats for each group. […] The SLA/PP is a chemical enhancer combination recently identified from high-throughput screening (Karande et al., […], Nature Biotech. 22:192). Moreover, in other transdermal treatment groups, 100 μl saline was given to each rat in that group. For the subcutaneous treatment group, 14 μg of insulin per rat was injected.\nBlood was drawn from the rat tail vein at these time points and assayed for blood glucose as described above and serum insulin by radioimmunoassay (Immunotech, Czech).\nBlood glucose and serum insulin were measured before and 5 hrs. after the administration as described above."}, "male Sprague-Dawley rats [3]": {"tested_on": "male Sprague-Dawley rats", "assay": "Transdermal PT-141 delivery: penile erections, chasing, mounting", "format": "in vivo, rat", "conditions": "PT-141 160 μg/kg + peptide 240 μg/kg, cream, 1 h observation", "protocol": "All behavioral studies were performed from 9:00 am to 4:00 pm at 24±1° C. While the animals were anesthetized with Urethane, the hair in an area of approximately 3.0 cm×3.0 cm in the interscapular region was carefully trimmed using scissors, with caution not to damage the skin (rats with any visible sign of skin damage were not used). Rats were allowed to recover for at least 24 hours before the experiments. One hundred ul cream containing indicated amounts of PT-141 was placed on the exposed skin and spread evenly using the side of a pipet tip.\nTesting rats were divided into four groups with each group contain 6 rats.\nImmediately after administration, rats were placed into individual polystyrene cages (32 cm long, 30 cm wide, 30 cm high) for behavioral observation. […] According to methods described by Berendsen and Broekkamp (1987, Eur. J. Pharmacol. 135(3):279-87), a penile erection was present when the following is observed: repeated pelvic thrust immediately followed by an upright position, an emerging engorged penis which the rat licks while eating the ejaculate. In addition, chasing was observed when the male moves forward along the female's side with its mouth licking the female's genital area, while mounting was present when the male's both front feet are off the ground and plant on the female's rump without ejaculation (Naby et al., 1992, Horm. Behav. 26:24; Randy et al., 1995, Nature 378:383)."}, "^125I-insulin": {"target": "T2, ^125I-insulin (Sus scrofa, UniProt P01315)", "T2 construct": "purchased Beijing Atom HighTech", "T2 sequence (P01315 25-54 limits assumed)": "as the sequence (P01315 25-54 limits assumed) above", "assay": "Direct interaction between coated TD-1 and ^125I-insulin", "format": "binding, porcine", "conditions": "up to 1 mg TD-1 per well", "protocol": "After extensive washing with PBST (PBS+0.1% Tween-20), radioactivity was measured with Gamma Radioimmunoassay Counter."}, "[4]": {"conditions": "insulin-FITC 10 μg + TD-1, time course"}, "[5]": {"conditions": "peptide topically co-administered with PH-1"}, "[6]": {"conditions": "500 μg TD-1 + 70 μg porcine insulin, topical"}, "[7]": {"conditions": "co-administered with 70 μg insulin, 5 hours"}}}
{"sequence": "ACSSSPSKHCG [TD-1]", "values": [{"measurement": "direct binding to insulin (conclusion of binding assays)", "setting": "insulin", "value": "does not bind insulin directly"}, {"measurement": "insulin bound to precoated TD-1", "setting": "insulin; wells coated with increasing amounts of TD-1, 100 μg insulin", "value": "No significant amount of insulin was found to bind"}, {"measurement": "follicular penetration of insulin-FITC", "setting": "hair follicles; 10 μg insulin-FITC co-administered with enhancer, 2 h, abdominal skin", "value": "penetration of insulin-FITC deep into hair follicles"}, {"measurement": "relation of waiting period to extent of follicular penetration of insulin-FITC", "setting": "hair follicles; TD-1 5 min, washed, waiting 0-60 min before insulin-FITC", "value": "inversely proportional"}, {"measurement": "duration of follicular penetration of insulin-FITC", "setting": "hair follicles; [4]", "value": "at least 24 hours"}, {"measurement": "earliest time follicular penetration of insulin-FITC detectable", "setting": "hair follicles; [4]", "value": 30, "unit": "min"}, {"measurement": "time of maximum follicular penetration of insulin-FITC", "setting": "hair follicles; [4]", "value": 2, "unit": "h"}, {"measurement": "tested rats in which enhanced transdermal penetration of a control phage was observed", "setting": "Male Wistar rats; co-administered with control phage, data not shown", "value": 20, "unit": "%"}, {"measurement": "amount that completely abolished the transdermal activity of PH-1", "setting": "Male Wistar rats; [5]", "value": "over 5 μg"}, {"measurement": "effect on transdermal activity of phages carrying the TD-2 peptide (PH-1)", "setting": "Male Wistar rats; [5]", "value": "dose-dependent manner"}, {"measurement": "time at which most PEs occurred", "setting": "male Sprague-Dawley rats [1]; APO 0.8 mg/kg + TD-1 2.0 mg/kg", "value": "during the second hour"}, {"measurement": "number of PEs", "setting": "male Sprague-Dawley rats [1]; TD-1 0.4 mg/kg + APO 0.8 mg/kg", "value": "did not significantly increase"}, {"measurement": "transdermal-enhancing effect (number of PEs)", "setting": "male Sprague-Dawley rats [1]; TD-1 0.8, 2.0 and 3.2 mg/kg + APO 0.8 mg/kg", "value": "reached maximum"}, {"measurement": "effect on APO transdermal delivery (APO-induced penile erections)", "setting": "male Sprague-Dawley rats [1]; peptide 2.0 mg/kg + APO 0.8 mg/kg, cream, 2 h observation", "value": "facilitates transdermal APO delivery"}, {"measurement": "time at which decrease of blood glucose was seen", "setting": "[2]; [6]", "value": 2, "unit": "h"}, {"measurement": "time of lowest blood glucose level", "setting": "[2]; [6]", "value": 8, "unit": "h"}, {"measurement": "lowest blood glucose level", "setting": "[2]; 500 μg TD-1 + 70 μg porcine insulin, topical, at 8 hours", "value": "< 25 % of the initial blood glucose level"}, {"measurement": "effect on blood glucose or serum insulin level", "setting": "[2]; 500 μg TD-1 alone, without insulin, topical", "value": "no effect"}, {"measurement": "Blood Glucose Mean", "setting": "[2]; 5 hr value as % of the 0 hr value, 500 μg peptide + 70 μg insulin topical", "value": 38.68, "unit": "%"}, {"measurement": "TD-1 amount at which transdermal-enhancing effect reached maximum", "setting": "[2]; [7]", "value": "> 500", "unit": "µg"}, {"measurement": "TD-1 amount without significant insulin-elevating and glucose-lowering effect", "setting": "[2]; [7]", "value": "< 20", "unit": "µg"}, {"measurement": "numbers of PEs, chasing and mounting", "setting": "male Sprague-Dawley rats [3]", "value": "significantly increased"}, {"measurement": "^125I-insulin bound to wells precoated with TD-1", "setting": "^125I-insulin", "value": "No significant radioactivity above the background level"}]}
